Earlier results on 61 molecules are cited in the CATMoS acute toxicity set (Mansouri et al. 2021).

Usually LD50 stands for the dose at which mortality reaches 50%.

Where “and” joins values, the source holds several entries; their conditions need not be identical. Equal entries are not always repeated.

A short description of the data set: rat acute oral toxicity. The settings on record: in vivo.
`C#CCN1C(=O)CN=C(c2ccccc2)c2cc([N+](=O)[O-])ccc21`: the 50% lethal dose (LD50) is 876 mg/kg.

On to `ClC1=C(Cl)C2(Cl)C3C(Br)C=CC3C1(Cl)C2(Cl)Cl` (stereo unspecified), for which the LD50 was 1040 mg/kg.

Consider `O=C(O)c1ccccc1C(=O)O`, for which the 50% lethal dose (LD50) is 7900 mg/kg.

For `CCNC(C)Cc1cccc(C(F)(F)F)c1` (stereo unspecified), the LD50 was 130 mg/kg.

Regarding `CC(=O)OC1CCC(N2CCCCC2)CC1` (stereo unspecified), the LD50 was 1950 mg/kg.

Turning to `O=C1NC2CCCCN2C12CCN(CCCN1c3ccccc3CCc3ccc(Cl)cc31)CC2` (stereo unspecified), the 50% lethal dose (LD50) was 4910 mg/kg.

For the molecule `CC(C)(C)NCC(O)c1cc(Cl)c(N)c(Cl)c1` (stereo unspecified), the LD50 is 159 mg/kg.

Take `C#CCC1=C(C)C(OC(=O)C2C(C=C(C)C)C2(C)C)CC1=O` (stereo unspecified): the LD50 was 460 mg/kg.

Consider `CCC1NC(=O)C2C(Cl)C(Cl)CN2C(=O)C(CO)NC(=O)CC(c2ccccc2)NC(=O)C(CO)NC1=O` (stereo unspecified), for which the 50% lethal dose (LD50) was 5 mg/kg.

On to `CCCCCCCCCCCC(=O)NP(=O)(OC)SC` (stereo unspecified), for which the LD50 was 100 mg/kg.

With `CN(C)C(=O)Oc1ccc[n+](C)c1`, the LD50 was 37.5 mg/kg.

Turning to `Cc1ccc2ccccc2c1N`, the LD50 is 620 mg/kg.

In the case of `COC(=O)c1c(Cl)c(Cl)c(C(=O)N(C)OC)c(Cl)c1Cl`, the LD50 is 1170 mg/kg.

For `OCC(O)CN1CCN(c2ccccc2)CC1` (stereo unspecified), the median lethal dose (LD50) is 750 mg/kg.

For the molecule `CC1(C)[C@@H](OC(=O)CCC(=O)O)CC[C@]2(C)[C@H]3C(=O)C=C4[C@@H]5C[C@@](C)(C(=O)O)CC[C@]5(C)CC[C@@]4(C)[C@]3(C)CC[C@@H]12`, the LD50 is 2450 mg/kg.

As for `CCOC(=O)C(C#N)C(=O)Cc1c(C)n(C(=O)c2ccc(Cl)cc2)c2ccc(OC)cc12` (stereo unspecified), the LD50 was 82 mg/kg.

On to `CCOP(=O)(OCC)SCSP(=O)(OCC)OCC`, for which the LD50 is 12.8 mg/kg.

`Cc1cc(C)cc(OCC2CNC(=O)O2)c1` (stereo unspecified): the median lethal dose (LD50) was 775 mg/kg.

With `CCCOc1ccc(C=CC(=O)OCC)cc1OC`, the median lethal dose (LD50) is 978 mg/kg.

For the molecule `C[N+]1(C)[C@@H]2CC[C@H]1C[C@@H](OC(=O)C(CO)c1ccccc1)C2` (stereo partly specified), the median lethal dose (LD50) is 1050 mg/kg and 1900 mg/kg.

As for `C=C1CC[C@H](O)C/C1=C/C=C1\CCC[C@]2(C)[C@@H]([C@H](C)/C=C/[C@H](C)C(C)C)CC[C@@H]12`, the LD50 is 10 mg/kg.

As to `COc1cc(N)c(Cl)cc1C(=O)NC1CCNCC1`, the LD50 was 2550 mg/kg.

Turning to `CC(C)NCC(O)c1ccccc1Cl` (stereo unspecified), the LD50 was 450 mg/kg and 445 mg/kg.

In the case of `CCCCCCCCCCCCCCSC#N`, the LD50 was 15000 mg/kg.

Turning to `CC(C)(C)NCC(O)COc1cccc2c1C[C@H](O)[C@H](O)C2` (stereo partly specified), the LD50 was 5300 mg/kg.

`CCOP(=S)(OCC)Oc1cc(C)[nH]n1`: the 50% lethal dose (LD50) was 12 mg/kg.

Consider `O=C(O)c1ccccc1Cl`, for which the LD50 is 1140 mg/kg.

`CS(=O)(=O)OCCCN(CCCOS(C)(=O)=O)c1ccccc1`: the LD50 is 38 mg/kg.

`CCN(CC)CCOc1ccc2nc(N(C)C)sc2c1`: the median lethal dose (LD50) is 880 mg/kg.

Regarding `N#Cc1c(Cl)cccc1Cl`, the 50% lethal dose (LD50) is 2710 mg/kg.

For the molecule `CCCCC(CC)COP(=O)(O)OCC(CC)CCCC` (stereo unspecified), the LD50 was 4940 mg/kg.

For `CCOP(=S)(OCC)Oc1ccccc1[N+](=O)[O-]`, the LD50 was 25 mg/kg.

Consider `O=Nc1ccc(N=O)cc1`, for which the median lethal dose (LD50) was 1020 mg/kg.

`OCC1CCCO1` (stereo unspecified): the LD50 was 1600 mg/kg.

For `N#Cc1nn(-c2c(Cl)cc(C(F)(F)F)cc2Cl)c(N)c1S(=O)(=O)C(F)(F)F`, the LD50 is 184 mg/kg.

As for `COc1ccc(Nc2ccc(OC)cc2)cc1`, the 50% lethal dose (LD50) is 2470 mg/kg.

Consider `CSc1ccc2c(c1)N(CCCN(C)C)c1ccccc1S2`, for which the 50% lethal dose (LD50) was 1450 mg/kg.

Take `O=C(O)Cc1ccc2c(c1)C(=O)c1ccccc1CO2`: the LD50 was 143 mg/kg.

On to `FC(F)(F)c1nc2c(Br)cccc2[nH]1`, for which the 50% lethal dose (LD50) is 28 mg/kg.

In the case of `c1nc(NC2CC2)c2ncn(CC3CC3)c2n1`, the LD50 is 160 mg/kg.

As for `[O-][n+]1cc[n+]([O-])c2ccccc21`, the LD50 is 500 mg/kg.

In the case of `CC(C)(C)C1CCC(NCCC(c2ccccc2)c2ccccc2)CC1` (stereo unspecified), the LD50 was 2550 mg/kg.

`CCCCN1CCCC1C(=O)Nc1c(C)cc(C)cc1C` (stereo unspecified): the median lethal dose (LD50) was 14000 mg/kg.

Take `O=C(O)/C=C\Cl`: the LD50 is 320 mg/kg.

Take `OC[C@H]1O[C@@H](O[C@@H]2[C@@H](CO)O[C@](O)(CO)[C@H]2O)[C@H](O)[C@@H](O)[C@H]1O`: the LD50 is 18200 mg/kg.

Turning to `CC1(C)C(=O)N(Cl)C(=O)N1Cl`, the 50% lethal dose (LD50) was 542 mg/kg.

On to `CCCCOCCOCCOC(=O)c1ccccc1C(=O)OCCOCCOCCCC`, for which the 50% lethal dose (LD50) was 9700 mg/kg.

Consider `N[C@@H](CC(=O)O)C(=O)O`, for which the median lethal dose (LD50) is 7940 mg/kg.

For the molecule `CNC(=O)Oc1cccc2sccc12`, the 50% lethal dose (LD50) was 70 mg/kg.

Consider `CCOC(=O)C1(c2ccccc2)CCCN(C)CC1` (stereo unspecified), for which the 50% lethal dose (LD50) is 580 mg/kg and 355 mg/kg.

Turning to `CC(=O)OCC1=CC[C@@H]2C[C@H]1C2(C)C`, the median lethal dose (LD50) was 2600 mg/kg.

With `CCOP(=O)(OCC)SCSc1cc(Cl)ccc1Cl`, the 50% lethal dose (LD50) is 38 mg/kg.

On to `CCCC[P+](CCCC)(CCCC)CCCC`, for which the LD50 was 916 mg/kg and 420 mg/kg.

On to `CCCCC(CC)COP(=O)(O)O` (stereo unspecified), for which the LD50 was 3450 mg/kg.

Take `Clc1c(Cl)c(Cl)c2c(c1Cl)Oc1c(Cl)c(Cl)c(Cl)c(Cl)c1O2`: the 50% lethal dose (LD50) is 1 mg/kg.

As for `O=[N+]([O-])c1ccc2c(N=Nc3ccc4ccccc4c3O)c(O)cc(S(=O)(=O)O)c2c1`, the 50% lethal dose (LD50) was 17600 mg/kg.

Regarding `CCOC(=O)NCCOc1ccc(Oc2ccccc2)cc1`, the 50% lethal dose (LD50) is 16800 mg/kg.

On to `CCS(=O)(=O)CCn1c([N+](=O)[O-])cnc1C`, for which the LD50 is 2710 mg/kg.

Regarding `O=P1(NCCCl)OCCCN1CCCl` (stereo unspecified), the LD50 is 143 mg/kg.

In the case of `CCOC(C1=NCCCN1)c1cccc(Cl)c1` (stereo unspecified), the 50% lethal dose (LD50) is 695 mg/kg.

`CCN(CC)C(=O)c1cc(=O)c2ccccc2o1`: the LD50 is 4000 mg/kg.
